Data: patent publication US20190374563A1, “TREATMENT OF KLEBSIELLA PNEUMONIAE INFECTIONS WITH ANTIBACTERIAL AMINOGLYCOSIDE COMPOUNDS” (Achaogen, Inc., priority 2009, published 2019)
In brackets after ≈: the same amount, converted by molar mass. Where two headings read alike, the source gives them in different places.

Legend:
[1] = system: E. coli ATCC 25922 (AECO001); experiment: MIC assay, CLSI broth microdilution; format: cell-based; set-up: MIC AECO001: unit not given here; conditions: for MIC: Escherichia coli
Protocol: (§1) Minimum inhibitory concentrations (MIC) were determined by reference Clinical and Laboratory Standards Institute (CLSI) broth microdilution methods per M7-A7 [2006]. Quality control ranges utilizing E. coli ATCC 25922, P. aeruginosa ATCC 27853 and S. aureus ATCC 29213, and interpretive criteria for comparator agents were as published in CLSI M100-S17 [2007]. Briefly, serial two-fold dilutions of the test compounds were prepared at 2× concentration in Mueller Hinton Broth. The compound dilutions were mixed in 96-well assay plates in a 1:1 ratio with bacterial inoculum. The inoculum was prepared by suspension of a colony from an agar plate that was prepared the previous day. Bacteria were suspended in sterile saline and added to each assay plate to obtain a final concentration of 5×10^5 CFU/mL. The plates were incubated at 35° C. for 20 hours in ambient air.

[2] = system: P. aeruginosa ATCC 27853 (APAE001); experiment: MIC assay, CLSI broth microdilution; format: cell-based; conditions: Pseudomonas aeruginosa
Protocol: as §1

[3] = ATCC25922, read-out: MIC AECO001
[4] = ATCC27853, read-out: MIC APAE001

Row | MIC ([1]; Table 1, AECO001 is ATCC25922, read-out: MIC AECO001) | MIC AECO001 ([1]; Table 3, E. coli ATCC25922) | MIC ([2]; Table 1, APAE001 is ATCC27853, read-out: MIC APAE001) | Compound | MIC [1, 3] | MIC [2, 4]
1 |  |  |  | CN[C@@H]1[C@@H](O)[C@@H](O[C@@H]2[C@@H](O)[C@H](O[C@H]3OC(CNCCO)=CC[C@H]3N)[C@@H](N)C[C@H]2NC(=O)CO)OC[C@]1(C)O [Example 25, 6′-(2-Hydroxy-ethyl)-1-(2-hydroxy-acetyl)-sisomicin] | 1 to 16 µg/mL (≈ 1.82 to 29.1 µM) | 1 to 16 µg/mL (≈ 1.82 to 29.1 µM)
2 |  |  |  | CN[C@@H]1[C@@H](O)[C@@H](O[C@@H]2[C@@H](O)[C@H](O[C@H]3OC(CNC[C@H]4C[C@H](N)C4)=CC[C@H]3NC(=N)N)[C@@H](N)C[C@H]2N)OC[C@]1(C)O [Example 107, 6′-(Methyl-trans-3-amino-cyclobutyl)-2′-guanidinium-sisomicin] | 1 to 16 µg/mL (≈ 1.75 to 27.9 µM) | < 1 µg/mL
3 |  |  |  | CN[C@@H]1[C@@H](O)[C@@H](O[C@@H]2[C@@H](O)[C@H](O[C@H]3OC(CNCC(O)CO)=CC[C@H]3N)[C@@H](N)C[C@H]2NC(=O)[C@@H](O)CN)OC[C@]1(C)O (stereo partly drawn) [Example 14, 6′-(2-Hydroxy-propanol)-1-(3-amino-2(S)-hydroxy-propionyl)-sisomicin] | 1 to 16 µg/mL (≈ 1.64 to 26.3 µM) | 1 to 16 µg/mL (≈ 1.64 to 26.3 µM)
4 |  |  |  | CN[C@@H]1[C@@H](O)[C@@H](O[C@@H]2[C@@H](O)[C@H](O[C@H]3OC(CN)=CC[C@H]3NC(=O)C(O)CN)[C@@H](N)C[C@H]2NC(=O)[C@@H](O)CCN)OC[C@]1(C)O (stereo partly drawn) [Example 89, 2′-(3-Amino-2-hydroxy-propionyl)-1-(4-amino-2(S)-hydroxy-butyryl)-sisomicin] | < 1 µg/mL | 1 to 16 µg/mL (≈ 1.57 to 25.2 µM)
5 |  |  |  | CN[C@@H]1[C@@H](O)[C@@H](O[C@@H]2[C@@H](O)[C@H](O[C@H]3OC(CNCCNC4CNC4)=CC[C@H]3N)[C@@H](N)C[C@H]2NC(=O)[C@@H](O)CN)OC[C@]1(C)O [Example 81, 6′-(N-(Azetidin-3-yl)-2-amino-ethyl)-1-(3-amino-2(S)-hydroxy-propionyl)-sisomicin] | 1 to 16 µg/mL (≈ 1.58 to 25.3 µM) | > 16 µg/mL
6 |  |  |  | CN[C@@H]1[C@@H](O)[C@@H](O[C@@H]2[C@@H](O)[C@H](O[C@H]3OC(CNCC4CNC4)=CC[C@H]3N)[C@@H](N)C[C@H]2NC(=O)[C@@H](O)CN)OC[C@]1(C)O [Example 73, 6′-(Methyl-azetidin-3-yl)-1-(3-amino-2(S)-hydroxy-propionyl)-sisomicin] | 1 to 16 µg/mL (≈ 1.66 to 26.5 µM) | 1 to 16 µg/mL (≈ 1.66 to 26.5 µM)
7 |  |  |  | CN[C@@H]1[C@@H](O)[C@@H](O[C@@H]2[C@@H](O)[C@H](O[C@H]3OC(CNC[C@H]4C[C@@H](N)[C@@H](O)C4)=CC[C@H]3N)[C@@H](N)C[C@H]2NC(=O)[C@@H](O)CN)OC[C@]1(C)O [Example 69, 6′-(Methyl-1(R)-amino-2(S)-hydroxy-cyclopent-4(S)-yl)-1-(3-amino-2(S)-hydroxy-propionyl)-sisomicin] | < 1 µg/mL | 1 to 16 µg/mL (≈ 1.54 to 24.7 µM)
8 | < 1 µg/mL | 1 | 1 to 16 µg/mL (≈ 1.65 to 26.4 µM) | CN[C@@H]1[C@@H](O)[C@@H](O[C@@H]2[C@@H](O)[C@H](O[C@H]3OC(CNCCCN)=CC[C@H]3N)[C@@H](N)C[C@H]2NC(=O)[C@@H](O)CCN)OC[C@]1(C)O [Example 48, 6′-(3-Amino-propyl)-1-(4-amino-2(S)-hydroxy-butyryl)-sisomicin] |  | 
9 |  |  |  | CN[C@@H]1[C@@H](O)[C@@H](O[C@@H]2[C@@H](O)[C@H](O[C@H]3OC(CNCC(O)CO)=CC[C@H]3N)[C@@H](N)C[C@H]2NC(=O)[C@H](O)CN)OC[C@]1(C)O (stereo partly drawn) [Example 10, 6′-(2-Hydroxy-propanol)-1-(3-amino-2(R)-hydroxy-propionyl)-sisomicin] | 1 to 16 µg/mL (≈ 1.64 to 26.3 µM) | 1 to 16 µg/mL (≈ 1.64 to 26.3 µM)
10 |  |  |  | CN[C@@H]1[C@@H](O)[C@@H](O[C@@H]2[C@@H](O)[C@H](O[C@H]3OC(CNCCCC(O)CN)=CC[C@H]3N)[C@@H](N)C[C@H]2NC(=O)[C@@H](O)CN)OC[C@]1(C)O (stereo partly drawn) [Example 80, 6′-(4-Hydroxy-5-amino-pentyl)-1-(3-amino-2(S)-hydroxy-propionyl)-sisomicin] | < 1 µg/mL | < 1 µg/mL
11 |  |  |  | CN[C@@H]1[C@@H](O)[C@@H](O[C@@H]2[C@@H](O)[C@H](O[C@H]3OC(CN)=CC[C@H]3NC(=O)C(C)N)[C@@H](N)C[C@H]2NC(=O)[C@@H](O)CCN)OC[C@]1(C)O (stereo partly drawn) [Example 88, 2′-(2-Amino-propionyl)-1-(4-amino-2(S)-hydroxy-butyryl)-sisomicin] | 1 to 16 µg/mL (≈ 1.61 to 25.8 µM) | 1 to 16 µg/mL (≈ 1.61 to 25.8 µM)
12 |  |  |  | CN[C@@H]1[C@@H](O)[C@@H](O[C@@H]2[C@@H](O)[C@H](O[C@H]3OC(CNCC4CC4)=CC[C@H]3N)[C@@H](N)C[C@H]2NC(=O)C2(O)CCNC2)OC[C@]1(C)O (stereo partly drawn) [Example 41] | < 1 µg/mL | 1 to 16 µg/mL (≈ 1.63 to 26 µM)
13 |  |  |  | CN[C@@H]1[C@@H](O)[C@@H](O[C@@H]2[C@@H](O)[C@H](O[C@H]3OC(CNCC4CC4)=CC[C@H]3N)[C@@H](N)C[C@H]2NC(=O)C(O)C2CNC2)OC[C@]1(C)O (stereo partly drawn) [Example 71, 6′-Methylcyclopropyl-1-(2-(azetidin-3-yl)-2-hydroxy-acetyl)-sisomicin] | 1 to 16 µg/mL (≈ 1.63 to 26 µM) | > 16 µg/mL
